From patent US20170095565A1, “CHEMICALLY MODIFIED SMALL MOLECULES” (Nektar Therapeutics, priority 2003, published 2017)
Read-outs that look alike come from different tables or passages of the source. Blank lines part the entries; values can stand above or below the compound they belong to.

Key:
Mu-opiate = Mu-opiate (Homo sapiens, UniProt P35372); conditions: read-out: IC50, Mu-opiate binding activity
[1] = Oral bioavailability: plasma concentration after oral gavage; format: in vivo, Sprague Dawley rats; conditions: rats, PEGylated compounds normalized to 1 mg/kg dose
Procedure: Female Sprague Dawley® rats (150-200 g) were obtained from Harlan Labs. […] The animals were fasted overnight (day −1), but water was provided ad libitum.
On the morning of dosing (day 0), each rat was weighed and the cannulas flushed with heparin (1000 U/mL). With the aid of a feeding tube, the animals were then dosed orally (gavage) with aqueous formulations containing either the PEGylated or the free drug. The dose was determined on a mg/kg body weight basis. […] At specific time intervals (1, 2 and 4 hours), blood samples (approximately 1.0 mL) were removed through the cannula, placed in 1.5 mL centrifuge tubes containing 14 μL of heparin, mixed and centrifuged to separate the plasma. The plasma samples were frozen (<−70° C.) until assayed. The plasma samples were purified by a precipitation technique and the analyte extracted and assayed using a high performance liquid chromatography (LC) method with a mass selective detector (MSD). […] When appropriate, an internal standard was used in the analysis.

μ-Opiate Receptors = μ-Opiate Receptors (Homo sapiens, UniProt P35372); experiment: biochemical; format: biochemical
Source text: In the table above, for each compound, the bioactivity is provided as a measure of the relative bioactivity of each of the various PEG conjugates in comparison to parent drug. The EC50 is the concentration of agonist that provokes a response halfway between the baseline and maximum response in a standard dose-response curve.

[2] = Solubility of tested compounds (Table 1)
[3] = In-vitro metabolism, incubation with liver microsomes
Procedure: The procedure calls for the preparation of a NADPH regenerating system (NRS) solution. […] After the solids were all dissolved, the solution was stored in an ice bath.
Male Sprague Dawley rat microsomes (0.5 mL at 20 mg/mL concentration; M00001 from In-vitro Technologies, Baltimore, Md.) were removed from the freezer and thawed in an ice bath. Forty μL of the liver microsomes were diluted to 100 μL with 60 μL of deionized water in a test vial. To the test vial, tris buffer, pH 7.4 (640 μL) and a test article stock (10 μL) were added to have 750 μL volume.
Each test vial and the NRS solution were separately placed in a 37° C. water bath for 5 minutes. The NRS solution (250 μL) was added into each test vial. The reaction timer was started at the addition of the NRS to the first test vial. Each sample (200 μL) was collected and then perchloric acid (20 μL) was added to terminate the reaction. The samples were collected at the following time points: 0-2, 20, 40 and 60 minutes. All of the terminated test vials were stored in an ice bath.
Acetonitrile (100 μL) was added into each test vial, which was then centrifuged at 3000×g for 5 minutes. Supernatant (230 μL) was withdrawn and then 10 μL of the test solution was assayed by an LC/MS method. The concentration of test article in each sample was measured and recorded at each time point.

hGR = molecular target: T1, hGR (Homo sapiens, UniProt P04150); experiment: Glucocorticoid receptor luciferase reporter assay in COS-7 cells; format: cell-based; conditions: for EC50: ± standard error, 20 hours incubation, TA n = 1
T1 construct: expressed in transfected cells; host or cells: COS-7 cells
T1 sequence (P04150 1-777): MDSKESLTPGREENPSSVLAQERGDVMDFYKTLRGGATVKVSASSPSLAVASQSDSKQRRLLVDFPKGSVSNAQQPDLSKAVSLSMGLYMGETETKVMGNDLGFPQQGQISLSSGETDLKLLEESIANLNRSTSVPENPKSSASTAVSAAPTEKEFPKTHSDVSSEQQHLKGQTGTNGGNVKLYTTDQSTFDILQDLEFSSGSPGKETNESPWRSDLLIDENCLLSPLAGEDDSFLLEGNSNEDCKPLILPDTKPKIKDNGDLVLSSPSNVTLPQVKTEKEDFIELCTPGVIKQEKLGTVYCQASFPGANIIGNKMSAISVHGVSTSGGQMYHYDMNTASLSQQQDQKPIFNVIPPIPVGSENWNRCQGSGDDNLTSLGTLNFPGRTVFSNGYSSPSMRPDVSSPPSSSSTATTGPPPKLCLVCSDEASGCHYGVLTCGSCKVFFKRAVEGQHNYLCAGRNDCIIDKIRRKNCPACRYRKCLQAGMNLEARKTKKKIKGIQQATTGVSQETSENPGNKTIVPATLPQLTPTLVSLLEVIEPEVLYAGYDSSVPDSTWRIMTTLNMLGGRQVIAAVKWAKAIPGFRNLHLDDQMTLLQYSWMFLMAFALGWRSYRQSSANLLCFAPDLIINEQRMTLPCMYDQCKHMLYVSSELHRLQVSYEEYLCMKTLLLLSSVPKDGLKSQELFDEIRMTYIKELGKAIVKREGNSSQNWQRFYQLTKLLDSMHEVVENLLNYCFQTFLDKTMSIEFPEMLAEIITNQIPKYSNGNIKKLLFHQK
Source text: To quantitate the effect of PEGylation on the ability of the steroid to enter a cell and elicit a response, a glucocorticoid receptor reporter assay was employed. In this assay, treatment of cells with ligand leads to receptor-mediated expression of the firefly luciferase gene. The level of gene expression is quantitated by an enzymatic luciferase assay, and the amount of light produced is directly proportional to the expression level of the luciferase gene.
For these experiments, the Promega Dual Luciferase Reporter kit was employed. This involves a firefly luciferase reporter gene under the control of the Glucocorticoid Response Element (GRE-Luc), co-transfected into COS-7 cells with a gene encoding the hGR and a control vector containing a Renilla luciferase reporter gene under no promoter or enhancer elements (pRL-Null). The firefly luciferase gene is expressed only upon binding of a ligand-bound receptor to the GRE-Luc enhancer. […]
Cos-cells were plated in 96-well microplates and transfected with the relevant plasmids using standard procedures; all incubations and assays were performed in triplicate in these plates using medium containing DCCS, as described in section 8.3.1. […] Cells were then lysed, and the expression levels of firefly and Renilla luciferase were determined by sequential enzymatic assays provided by the Promega Dual Luciferase Reporter Assay kit. The resulting luminescence was detected using the Tecan Genios Pro Microplate reader, and data were analyzed using GraphPad Prism 4.0 software.
Readings obtained in the absence of steroid represent “basal” background levels of luciferase expression. All readings in the presence of steroid are expressed as a ratio compared with this, and termed “fold increase over basal.” Values obtained for firefly luciferase were normalized to those obtained for Renilla luciferase in the corresponding well in order to compensate for differences in transfection efficiency or cell number.

[4] = molecular target: T2, recombinant human glucocorticoid receptor (Homo sapiens, UniProt P04150); experiment: Cell-free glucocorticoid receptor binding assay (fluorescence polarization); conditions: for Ki: ± standard error, TA n = 2
T2 construct: purchased PanVera
T2 sequence (P04150 1-777): T1 sequence (P04150 1-777)
Source text: The assay is based on competitive inhibition binding of a fluorescently labeled high affinity ligand, and generates Ki values that can be compared between the test compounds. […] Thus, as with EC5o values, a higher Ki value reflects a weaker binding affinity.
A commercially available GR binding assay based on fluorescence polarization (FP) was utilized to compare the binding affinity of the PEGylated and native steroids (PanVera Glucocorticoid Receptor Competitor Assay). The assay is based on competitive inhibition and measures the ability of the test compound to compete with a fluorescently labeled ligand (Fluormone™ GS1) for binding to a purified preparation of the recombinant human glucocorticoid receptor.
In its free unbound form, the fluorescent ligand behaves as a small molecule with a high rotational velocity or “tumbling rate”, and correspondingly low ability to polarize fluorescence light (i.e. a low FP). When bound to receptor, the ligand essentially becomes part of a larger molecule, with a slower rotational velocity and a higher FP.
Standard competition assay procedures were employed. Briefly, serial dilutions of the test compound were incubated in triplicate wells of a black 96-well microplate together with the fluorescent ligand, and reactions were initiated by addition of purified recombinant receptor. Assays were incubated in the dark for 2-4 h, and then polarization values were read using the fluorescence polarization function of the Tecan Genios Pro microplate reader.

[5] = molecular target: T3, human glucocorticoid receptor (hGR) (Homo sapiens, UniProt P04150); experiment: Steroid-induced nuclear translocation assay of hGR in CHO cells; format: cell-based
T3 construct: expressed in transfected cells; host or cells: Chinese Hamster Ovary (CHO) cells
T3 sequence (P04150 1-777): T1 sequence (P04150 1-777)
Procedure: To determine whether PEGylated steroids can enter cells, and to compare their potency with the parent steroid triamcinolone, cells expressing the human glucocorticoid receptor (hGR) were incubated with increasing concentrations of TA, PEG-3-TA and PEG-7-TA, and the subcellular location of the hGR determined using immunocytochemistry and fluorescence microscopy.
Chinese Hamster Ovary (CHO) cells were plated on glass coverslips in 24-well plates, and transfected with DNA encoding the hGR using 0.25 μg DNA per well. One day following transfection, cells were incubated with increasing concentrations, from 1 nM to 10 μM, of TA, PEG-3-TA or PEG-7-TA, overnight at 37° C.
Stock solutions of steroids were prepared at 2 mM (TA) or 1 mM (PEG-3-TA, PEG-7-TA) in ethanol. Each test compound was diluted to 10 μM into culture medium supplemented with dextran-coated charcoal treated serum (DCCS) (final 5% serum), and then further diluted to the final concentrations. […] Dilutions of steroid were calculated to ensure that cells were not exposed to ethanol concentrations greater than 1% (v/v). […]
Following treatment with test compounds, cells were fixed in 3.7% (v/v) formaldehyde/PBS and permeabilized with 1% (v/v) Triton-X-100 in blocking buffer. Subcellular localization of the transfected hGR was determined by immunocytochemistry using an anti-GR antibody and a FITC-conjugated secondary antibody. […]

[6] = in vivo; cited from earlier work

Sequence of μ-Opiate Receptors (P35372 whole entry): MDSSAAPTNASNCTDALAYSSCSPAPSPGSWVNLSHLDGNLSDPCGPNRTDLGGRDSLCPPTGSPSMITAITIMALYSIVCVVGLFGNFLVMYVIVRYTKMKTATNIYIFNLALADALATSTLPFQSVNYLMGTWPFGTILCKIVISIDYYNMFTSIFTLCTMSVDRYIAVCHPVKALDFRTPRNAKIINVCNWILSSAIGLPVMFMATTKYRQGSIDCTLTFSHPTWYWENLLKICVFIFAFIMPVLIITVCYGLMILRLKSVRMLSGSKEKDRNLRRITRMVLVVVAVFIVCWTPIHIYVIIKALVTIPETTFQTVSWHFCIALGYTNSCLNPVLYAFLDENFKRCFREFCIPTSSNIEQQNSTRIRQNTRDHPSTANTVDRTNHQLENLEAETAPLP
Sequence of Mu-opiate (P35372 whole entry): as above

Compound: C=CCN1CC[C@]23c4c5ccc(O)c4O[C@H]2C(OCCOCCOCCOC)CC[C@@]3(O)[C@H]1C5 (stereo partly drawn) [β-PEG3-Nal, β-6-CH3—(OCH2CH2)3—O-naloxol]
IC50 (Mu-opiate): 31.7 nM
Mean Plasma Concentration ± SD, 1 hr ([1]; 1 hr): 53.79 ± 5.19 ng/mL
Mean Plasma Concentration ± SD, 2 hr ([1]; 2 hr): 22.47 ± 8.78 ng/mL
Bioactivity relative to the parent compound (μ-Opiate Receptors; from EC50 values): about 35%
EC50 (μ-Opiate Receptors; μ-opiate receptors, in-vitro): 31.7 nM
Percentage of Active Remaining After Incubation with Liver Microsomes (0 min): 100.0%
Percentage of Active Remaining After Incubation with Liver Microsomes (20 min): 83.9%
Percentage of Active Remaining After Incubation with Liver Microsomes (40 min): 75.2%
Percentage of Active Remaining After Incubation with Liver Microsomes (60 min): 69.6%
Solubility [2]: soluble
Substrate quality for cytochrome P450 isozymes in isolated rat liver microsomes [3]: poor substrate

Compound: CC1(C)O[C@@H]2C[C@H]3[C@@H]4CCC5=CC(=O)C=C[C@]5(C)[C@@]4(F)[C@@H](O)C[C@]3(C)[C@]2(C(=O)CO)O1 [TAA, triamcinolone acetonide]
Fold difference vs TAA (EC50, Luciferase assay) (hGR): 1
EC50 (hGR): 0.062 ± 0.011 nM
Fold difference vs TAA (Ki, Binding assay) [4]: 1
Ki [4]: 2.2 ± 0.5 nM

Concentration for complete translocation of hGR to the nucleus [5]: ≥ 10 nM
hGR localization ([5]; 1 nM (lowest concentration), overnight): predominantly in the nucleus
EC50 (hGR): 0.545 nM
Ki [4]: 45.5 ± 21.1 nM
Compound: C[C@]12C=CC(=O)C=C1CC[C@H]1[C@@H]3C[C@@H](O)[C@](O)(C(=O)CO)[C@@]3(C)C[C@H](O)[C@@]12F [TA, triamcinolone]

Compound: Nc1nc(F)nc2c1ncn2[C@@H]1O[C@H](CO)[C@@H](O)[C@@H]1O [fludarabine]
Oral bioavailability [6]: about 70%
